Measurements: patent publication US8927717B1, “Thiochromeno[2,3-c]quinolin-12-one derivatives, preparation method and application thereof” (National Defense Medical Center, priority 2014, dated 2015)

What was measured:
[1] = system: UACC-257; type: cell-based; details: UACC-257; for Growth percent: 10^−5 molar
[2] = molecular target: T1, TOP I (Topoisomerase I) (Homo sapiens, UniProt P11387); test: TOP I mediated supercoiled DNA relaxation assay; type: biochemical; details: primary assay at 25 and/or 50 μM
T1 construct: purchased TopoGEN TG2005H
T1 sequence (P11387 1-765): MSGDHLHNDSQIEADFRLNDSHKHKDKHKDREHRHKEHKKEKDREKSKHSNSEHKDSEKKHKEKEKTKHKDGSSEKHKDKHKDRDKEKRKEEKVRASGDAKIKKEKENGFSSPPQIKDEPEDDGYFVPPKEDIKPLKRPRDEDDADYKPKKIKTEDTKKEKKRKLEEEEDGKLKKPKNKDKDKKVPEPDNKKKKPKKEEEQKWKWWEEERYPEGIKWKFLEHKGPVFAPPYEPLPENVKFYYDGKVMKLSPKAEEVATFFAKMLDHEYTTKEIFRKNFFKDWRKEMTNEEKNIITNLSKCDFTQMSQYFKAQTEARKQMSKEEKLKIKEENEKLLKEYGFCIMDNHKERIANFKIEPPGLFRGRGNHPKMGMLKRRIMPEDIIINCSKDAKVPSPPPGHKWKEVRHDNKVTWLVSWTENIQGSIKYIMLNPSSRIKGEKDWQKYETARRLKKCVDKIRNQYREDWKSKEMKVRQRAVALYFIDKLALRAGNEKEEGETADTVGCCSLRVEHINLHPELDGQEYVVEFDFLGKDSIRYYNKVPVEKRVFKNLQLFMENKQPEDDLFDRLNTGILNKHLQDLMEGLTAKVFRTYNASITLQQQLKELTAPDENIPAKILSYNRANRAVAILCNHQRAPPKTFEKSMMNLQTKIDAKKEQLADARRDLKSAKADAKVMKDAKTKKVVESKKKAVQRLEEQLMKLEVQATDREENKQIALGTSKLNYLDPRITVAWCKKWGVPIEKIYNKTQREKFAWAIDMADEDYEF
Protocol: According to the cell cytotoxicity, compounds 5, 7, 8, 16, 19, N2, N7, N8, N9, N14-N19, and N25 were also selected for primary TOP I and II activities assays at 25 and/or 50 μM (FIG. 2-4).

[3] = system: HCT-116; type: cell-based; details: HCT-116; for Growth percent: 10^−5 molar
[4] = system: ACHN; type: cell-based; details: ACHN; for Growth percent: 10^−5 molar
[5] = system: SK-MEL-2; type: cell-based; details: SK-Mel-2; for Growth percent: 10^−5 molar
[6] = system: OVCAR-4; type: cell-based; details: OVCAR-4; for Growth percent: 10^−5 molar
[7] = system: HOP-92; type: cell-based; details: HOP-92; for Growth percent: 10^−5 molar
[8] = system: MDA-MB-486; type: cell-based; details: MDA-MB-486; for Growth percent: 10^−5 molar
[9] = system: M14; type: cell-based; details: M14; for Growth percent: 10^−5 molar
[10] = system: T-47D; type: cell-based; details: T-47D; for Growth percent: 10^−5 molar
[11] = system: HCC-2998; type: cell-based; details: HCC-2998; for Growth percent: 10^−5 molar
[12] = system: HCT-15; type: cell-based; details: HCT-15; for Growth percent: 10^−5 molar
[13] = system: SR; type: cell-based; details: SR; for Growth percent: 10^−5 molar
[14] = system: IGROV1; type: cell-based; details: IGROV1; for Growth percent: 10^−5 molar
[15] = system: CAKI-1; type: cell-based; details: CAKI-1
[16] = system: SW-620; type: cell-based; details: SW-620; for Growth percent: 10^−5 molar
[17] = system: SN12C; type: cell-based; details: SN12C; for Growth percent: 10^−5 molar
[18] = system: SF-539; type: cell-based; details: SF-539; for Growth percent: 10^−5 molar
[19] = system: SF-295; type: cell-based; details: SF-295; for Growth percent: 10^−5 molar
[20] = system: NCI/ADR-RES; type: cell-based; details: NCI/ADR-RES; for Growth percent: 10^−5 molar
[21] = molecular target: T2, TOP II (Topoisomerase II) (Homo sapiens, UniProt P11388); test: TOP II-catalyzed relaxation of plasmid DNA assay; type: biochemical
T2 construct: purchased TopoGEN TG-2000H-1
Protocol: We also performed TOP II-catalyzed relaxation of plasmid DNA assays (FIG. 5-7) to evaluate if compounds could inhibit TOP II. […] The IC50 value of compounds 7, N7, N8, N14, N15, N18, and N19 were about 10, 10, 1, 10, 5, 1, and 1 μM, respectively (detect by TopoGEN TG2005H, TG-2000H-1).

[22] = molecular target: T1, TOP I (Topoisomerase I); test: TOP I mediated supercoiled DNA relaxation assay; type: biochemical; details: five different concentrations; TopoGEN TG2005H, TG-2000H-1
[23] = system: OVCAR-3; type: cell-based; details: OVCAR-3, five dose
[24] = Homo sapiens, five dose, read-out: LC50 (the source's name)

T2 sequence (P11388 whole entry): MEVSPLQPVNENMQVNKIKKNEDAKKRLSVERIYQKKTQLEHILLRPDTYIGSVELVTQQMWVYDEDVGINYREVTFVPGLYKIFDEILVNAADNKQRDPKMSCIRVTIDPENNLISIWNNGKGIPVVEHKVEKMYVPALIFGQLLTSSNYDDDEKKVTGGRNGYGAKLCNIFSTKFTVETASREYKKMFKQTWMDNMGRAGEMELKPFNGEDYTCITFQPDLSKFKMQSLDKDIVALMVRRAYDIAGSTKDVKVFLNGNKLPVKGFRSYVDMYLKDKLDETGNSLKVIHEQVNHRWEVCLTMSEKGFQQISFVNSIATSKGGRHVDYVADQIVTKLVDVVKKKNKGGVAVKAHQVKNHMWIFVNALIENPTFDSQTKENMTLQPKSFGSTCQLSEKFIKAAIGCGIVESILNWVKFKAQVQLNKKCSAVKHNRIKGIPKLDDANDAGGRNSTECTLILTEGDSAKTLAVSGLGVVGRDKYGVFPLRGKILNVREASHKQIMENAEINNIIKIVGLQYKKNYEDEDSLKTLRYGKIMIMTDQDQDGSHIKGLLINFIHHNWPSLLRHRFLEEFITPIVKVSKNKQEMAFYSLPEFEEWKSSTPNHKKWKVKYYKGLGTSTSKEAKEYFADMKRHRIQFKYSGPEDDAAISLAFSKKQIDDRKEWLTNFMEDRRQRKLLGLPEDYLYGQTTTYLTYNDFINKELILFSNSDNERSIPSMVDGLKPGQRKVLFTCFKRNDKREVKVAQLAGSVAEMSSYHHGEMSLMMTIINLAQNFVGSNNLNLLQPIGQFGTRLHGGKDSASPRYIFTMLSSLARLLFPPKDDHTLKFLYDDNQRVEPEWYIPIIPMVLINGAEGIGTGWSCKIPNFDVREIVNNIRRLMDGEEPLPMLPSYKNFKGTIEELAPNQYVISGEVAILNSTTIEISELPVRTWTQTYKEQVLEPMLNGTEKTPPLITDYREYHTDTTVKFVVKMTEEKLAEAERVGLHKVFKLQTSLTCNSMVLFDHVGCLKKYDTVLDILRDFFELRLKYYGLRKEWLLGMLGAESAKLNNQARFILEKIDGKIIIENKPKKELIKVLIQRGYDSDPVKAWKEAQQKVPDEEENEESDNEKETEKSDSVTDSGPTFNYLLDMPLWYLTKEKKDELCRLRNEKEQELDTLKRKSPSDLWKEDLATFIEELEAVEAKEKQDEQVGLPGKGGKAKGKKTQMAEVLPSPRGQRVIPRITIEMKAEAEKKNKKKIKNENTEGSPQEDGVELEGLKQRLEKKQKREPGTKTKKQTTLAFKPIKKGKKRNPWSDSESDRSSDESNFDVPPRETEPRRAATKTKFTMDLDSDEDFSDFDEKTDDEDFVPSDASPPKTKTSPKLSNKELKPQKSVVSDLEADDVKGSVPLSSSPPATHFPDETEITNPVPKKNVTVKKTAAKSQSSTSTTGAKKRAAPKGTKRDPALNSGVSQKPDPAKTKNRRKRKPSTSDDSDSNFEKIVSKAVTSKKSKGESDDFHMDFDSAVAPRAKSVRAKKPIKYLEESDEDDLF

With CN(C)CCCNc1nc2ccccc2c2c(=O)c3cc(Cl)ccc3sc12 [Compound N17, 10-Chloro-6-((3-(dimethylamino)propyl)amino)-12H-thiochromeno[2,3-c]quinolin-12-one] the Growth percent [1] was 107.40%, the “inhibitory effect in TOP I activity assay compared with CPT” value [2] was “more potent inhibitory effects than CPT” and the Growth percent [3] was 70.19%. The Growth percent [4] was 86.20%, the Growth percent [5] was 106.47% and the Growth percent [6] was 94.63%. It also gave a Growth percent [7] of 40.76%, a Growth percent [8] of 43.26% and a Growth percent [9] of 103.73%. The Growth percent [10] was 79.82%, the Growth percent [11] was 108.36% and the Growth percent [12] was 80.92%. It also gave a melting point of 194 to 195 °C, a Growth percent [13] of 48.48% and a Growth percent [14] of 87.27%. The Growth percent ([15]; 10^−5 molar) was 84.31%, the Growth percent [16] was 91.74% and the Growth percent [17] was 83.63%. The Growth percent [18] was 87.85%, the Growth percent [19] was 95.14% and the Growth percent [20] was 96.94%.
O=c1c2cc(Cl)ccc2sc2c(NCCCNCCO)nc3ccccc3c12 [Compound N19, 10-Chloro-6-((3-((2-hydroxyethyl)amino)propyl)amino)-12H-thiochromeno[2,3-c]quinolin-12-one] gave a GI50 ([1]; Homo sapiens, five dose) of 1.86 µM, a CC50 [1, 24] of 6.33 µM and a Growth percent [1] of 45.70%. The TGI ([1]; five dose) was 3.44 µM, the Growth percent [3] was −91.19% and the TGI ([3]; five dose) was 3.05 µM. For the same compound, the GI50 ([3]; Homo sapiens, five dose) was 1.6 µM, the Growth percent [4] was −96.96% and the TGI ([4]; five dose) was 3.22 µM. It also gave a GI50 ([4]; Homo sapiens, five dose) of 1.67 µM, a GI50 ([5]; Homo sapiens, five dose) of 2.05 µM and a Growth percent [5] of 53.64%. It also gave a TGI ([5]; five dose) of 3.77 µM, a GI50 ([6]; Homo sapiens, five dose) of 1.6 µM and a Growth percent [6] of 12.32%. The TGI ([6]; five dose) was 3.23 µM, the Growth percent [7] was 23.01% and the TGI ([7]; five dose) was 4.58 µM. For the same compound, the GI50 ([7]; Homo sapiens, five dose) was 1.23 µM, the GI50 ([8]; 60 cell, five dose) was 1.06 µM and the CC50 ([8]; 60 cell, five dose, read-out: LC50 (the source's name)) was 6.2 µM. It also gave a Growth percent [8] of −24.00%, a TGI ([8]; five dose) of 2.56 µM and a GI50 ([9]; Homo sapiens, five dose) of 1.83 µM. It also gave a Growth percent [9] of 6.12%, a TGI ([9]; five dose) of 3.53 µM and a GI50 ([10]; Homo sapiens, T47D, five dose) of 1.5 µM. It also gave a Growth percent [10] of 16.26%, a TGI ([10]; five dose) of 3.43 µM and an IC50 ([21]; five different concentrations, TopoGEN TG2005H, TG-2000H-1, read-out: IC50 value, TOP II mediated supercoiled DNA relaxation) of about 1 µM. The “inhibitory effect in TOP II relaxation assay compared with VP-16” value ([21]; primary assay at 25 and/or 50 μM) was “more potent inhibitory effects than the positive agent VP-16”, the Growth percent [11] was −74.47% and the TGI ([11]; five dose) was 3.42 µM. The GI50 ([11]; Homo sapiens, five dose) was 1.58 µM, the Growth percent [12] was −76.47% and the TGI ([12]; five dose) was 3.25 µM. It also gave a GI50 ([12]; Homo sapiens, five dose) of 1.61 µM, a GI50 ([13]; Homo sapiens, five dose) of 1.98 µM and a Growth percent [13] of −51.40%. The TGI ([13]; five dose) was 4.55 µM, the GI50 ([14]; Homo sapiens, IGROV-1, five dose) was 1.66 µM and the Growth percent [14] was −43.25%. For the same compound, the TGI ([14]; five dose) was 3.60 µM, the IC50 [22] was about 5 µM and the TGI ([15]; five dose) was 2.69 µM. The GI50 ([15]; Homo sapiens, five dose) was 1.33 µM, the CC50 [15, 24] was 5.45 µM and the GI50 ([16]; Homo sapiens, five dose) was 1.63 µM. It also gave a Growth percent [16] of −81.48%, a TGI ([16]; five dose) of 3.30 µM and a GI50 ([17]; Homo sapiens, five dose) of 1.7 µM. It also gave a CC50 [17, 24] of 6.8 µM, a Growth percent [17] of 78.75% and a TGI ([17]; five dose) of 3.39 µM. It also gave a GI50 ([23]; Homo sapiens) of 1.79 µM, a TGI [23] of 3.51 µM and a GI50 ([18]; Homo sapiens, five dose) of 1.7 µM. It also gave a Growth percent [18] of −47.59%, a TGI ([18]; five dose) of 3.22 µM and a GI50 ([19]; Homo sapiens, five dose) of 1.73 µM. For the same compound, the Growth percent [19] was −93.00%, the TGI ([19]; five dose) was 3.33 µM and the GI50 ([20]; Homo sapiens, five dose) was 1.82 µM. It also gave a Growth percent [20] of 26.35% and a TGI ([20]; five dose) of 3.63 µM.
